Target: Casein kinase I isoform gamma-2 (Homo sapiens) (UniProt P78368)
Test: CSNK1G2 binders by thermal stabilization, biophysical, DSF, SYPRO orange, recombinant protein (AID 384)
Details: at 10 µM, protein 2 µM, buffer 10 mM HEPES, NaCl 100 mM, stronger effect = higher value

Casein kinase I isoform gamma-2 (Homo sapiens), sequence (P78368 whole entry, looked up, canonical isoform): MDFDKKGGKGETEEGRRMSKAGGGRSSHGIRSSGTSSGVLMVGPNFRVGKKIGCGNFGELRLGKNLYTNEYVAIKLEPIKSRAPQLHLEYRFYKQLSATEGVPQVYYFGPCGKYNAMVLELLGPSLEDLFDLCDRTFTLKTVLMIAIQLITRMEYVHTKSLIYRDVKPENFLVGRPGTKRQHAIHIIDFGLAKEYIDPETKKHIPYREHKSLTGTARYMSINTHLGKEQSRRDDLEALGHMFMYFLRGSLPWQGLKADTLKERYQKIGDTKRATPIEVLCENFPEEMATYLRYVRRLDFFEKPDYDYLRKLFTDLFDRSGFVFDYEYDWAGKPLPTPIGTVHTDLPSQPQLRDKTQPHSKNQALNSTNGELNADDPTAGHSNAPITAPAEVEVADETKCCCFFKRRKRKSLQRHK

Compound	Tm shift [Celsius]
Clc1ccc(Nc2ncc(-c3cn[nH]c3)n3ccnc23)cc1	3.76
COc1cc(O)c2c(c1)oc(=O)c1c3cc(O)c(O)cc3oc21	5.16
CCN(CC)CCNC(=O)c1c(C)[nH]c(/C=C2\C(=O)Nc3ccc(Cl)cc32)c1C	4.06
COc1cc(/C=C/C(=O)CC(=O)/C=C/c2ccc(O)c(OC)c2)ccc1O	4.92
CC(C)n1cnc2c(Nc3cccc(Cl)c3)nc(NCCO)nc21	5.58
Nc1ncnc2c1c(I)cn2[C@@H]1O[C@H](CO)C(O)C1O (some centres not stated)	4.69
NC1=N/C(=C2/CCNC(=O)c3[nH]c(Br)cc32)C(=O)N1	8.12
NC1=N/C(=C2\CCNC(=O)c3[nH]ccc32)C(=O)N1	3.67
O=C1C(=O)C(c2cc(O)c(O)c(O)c2)Oc2cc(O)cc(O)c21 (configuration not stated)	3.74
CC(C)C(CO)Nc1nc(Nc2cccc(Cl)c2)c2ncn(C(C)C)c2n1 (configuration not stated)	4.92
CCn1cnc2c(Nc3cccc(Cl)c3)nc(N[C@@H]3CCCC[C@@H]3N)nc21	3.79
O=c1c(O)c(-c2ccc(O)c(O)c2)oc2cc(O)ccc12	3.19
O=c1cc(-c2ccc(O)c(O)c2)oc2cc(O)cc(O)c12	4.55

Same assay, conditions: at 10 µM, protein 2 µM, buffer 10 mM HEPES, pH 7.5, NaCl 150 mM, stronger effect = higher value

Compound	Tm shift [Celsius]
NC(=O)c1ccc(-c2nc(-c3ccc4c(c3)OCCO4)c(-c3ccccn3)[nH]2)cc1	4.3
Cc1nc(N)sc1-c1ccnc(Nc2cccc(-n3oo3)c2)n1	4
CC(C)n1cnc2c(Nc3cccc(Cl)c3)nc(NCCO)nc21	4.7
O=Nc1c(-c2c(O)[nH]c3ccc(I)cc23)[nH]c2ccccc12	3.6
Nc1ncnc2c1c(I)cn2[C@@H]1O[C@H](CO)C(O)C1O (some centres not stated)	3.3
COc1ccc(Nc2nc(N)c(C(=O)c3ccc(OC)cc3)s2)cc1	4.3
O=c1c(O)c(-c2ccc(O)c(O)c2)oc2cc(O)cc(O)c12	3.1
NC1=N/C(=C2/CCNC(=O)c3[nH]c(Br)cc32)C(=O)N1	4.4
COc1ccc(Nc2nc(N)c(C(=O)c3ccc(Cl)cc3)s2)cc1	3.1
CSc1nc(-c2ccnc(NC(C)c3ccccc3)c2)c(-c2ccc(F)cc2)[nH]1 (configuration not stated)	3.4
Cc1cc(Nc2nc(-c3ccccc3)nc3ccccc23)n[nH]1	3.3
O=c1[nH]c(O)c2c1c1c3ccccc3nc1n1cncc21	3.6
Nc1nc(Nc2cccc(Cl)c2)sc1C(=O)c1ccc(F)cc1	3.4
O=Nc1c(-c2c(O)[nH]c3ccc(S(O)(O)O)cc23)[nH]c2ccccc12	3.1

Reference: PubChem BioAssay AID384 (SGCOxCompounds, 2006)
